Laboratory results: patent US20040186166A1, “Cannabinoid analogs as peroxisome proliferator activated nuclear receptor gamma activators” (priority 2002, published 2004)

Key:
[1] = molecular target: T1, PPARγ / GST-RAC3 (amino acids 613-752) (Mus musculus, UniProt P37238); experiment: GST pull-down assay, PPARγ with GST-RAC3; format: binding; details: 20 μM AJA
T1 construct: made in house; host or cells: PPARγ1: reticulocyte lysate; GST-RAC3: E. coli BL21, kept on glutathione-Sepharose beads
T1 sequence (P37238 1-475 isoform P37238-2): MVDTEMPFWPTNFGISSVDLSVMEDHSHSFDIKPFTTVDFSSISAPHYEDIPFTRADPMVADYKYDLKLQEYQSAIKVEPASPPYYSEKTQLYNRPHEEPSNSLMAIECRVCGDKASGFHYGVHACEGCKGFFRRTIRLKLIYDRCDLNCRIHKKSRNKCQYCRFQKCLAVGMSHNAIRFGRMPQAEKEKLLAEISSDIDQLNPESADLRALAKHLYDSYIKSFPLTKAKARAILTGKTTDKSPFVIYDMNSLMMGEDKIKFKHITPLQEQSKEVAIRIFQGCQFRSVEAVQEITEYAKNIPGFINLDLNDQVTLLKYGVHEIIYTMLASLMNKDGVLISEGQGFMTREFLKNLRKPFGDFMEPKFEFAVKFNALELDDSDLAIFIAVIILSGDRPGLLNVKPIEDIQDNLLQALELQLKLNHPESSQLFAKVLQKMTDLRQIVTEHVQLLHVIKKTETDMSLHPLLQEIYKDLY
T1 sequence (Q9Y6Q9 613-752 partner limits assumed): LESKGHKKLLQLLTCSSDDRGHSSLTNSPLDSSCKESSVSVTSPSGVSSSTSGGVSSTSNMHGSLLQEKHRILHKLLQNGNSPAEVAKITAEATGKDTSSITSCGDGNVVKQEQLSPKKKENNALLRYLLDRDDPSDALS
Method: The glutathione S-transferase (GST)-DRIP205 (amino acid 527-970) and GST-RAC3 RID (amino acid 613-752) fusion proteins were expressed in BL21 cells by induction with 0.1 mM isopropyl-β-D-thiogalactopyranoside (IPTG) at room temperature for 4 hours. The bacterial pellet was resuspended in STE buffer (150 mM NaCl, 10 mM Tris pH 8.0, 1 mM EDTA), containing 5 mM dithiothreitol (DTT), 1 mM phenylmethlsulfonyl fluoride (PMSF) and 1.5% Sarkosyl. The cell suspension was sonicated and centrifuged at 7400 rpm at 4° C. for 30 minutes. The supernatant was isolated and 0.02% Triton-X 100 was added, and the mixture was then incubated with 1 ml 50% slurry of glutathione-Sepharose beads on a rotator at 4° C. for 30 minutes. The beads were spun down at 3000 rpm for 10 minutes, the supernatant was removed, and the beads were suspended in 1 ml cold PBS.
Approximately 5 μg of GST-DRIP205 or GST-RAC3 bound on glutathione-Sepharose beads and 4 μl ^35S-methionine-labeled mPPARγ1 were incubated with the indicated concentrations of AJA, GW347845, or vehicle alone in H buffer (20 mM Hepes [pH 7.7], 75 mM KCl, 0.1 mM EDTA, 2.5 mM MgCl2, 0.05% NP40, 0.1 mM methionine, 1 mM DTT) containing 1 mg/ml bovine serum albumin (BSA) on a rotator at 4° C. overnight. After three washes with cold PBS, the bound protein was eluted in SDS sample buffer and boiled for 10 min before SDS-PAGE and autoradiography. […]

[2] = adjuvant-induced poly-arthritis, rats; cited from earlier work

CCCCCCC(C)(C)c1cc(O)c2c(c1)OC(C)(C)[C@@H]1CC=C(C(=O)O)C[C@@H]21 [AJA, dimethylheptyl-THC-11-oic acid]
binding of PPARγ to GST-RAC3 [1]: increased binding | chronic joint inflammation [2]: suppress
